Consider seven compounds from patent US9743675B2, “Antimicrobial composition” (UNIVERSITY OF SURREY, priority 2009, dated 2017).

Molecules are shown by their SMILES. Values joined by “and” are separate entries in the source; they are usually repeats but may differ in a detail not shown here. Identical values can stand only once. Like-named read-outs stand apart in the source and are kept apart here. A value given as a limit tells only on which side of the number the result lay.

Series [1] relates to Salmonella enteritidis. Description: micro broth dilution, coniferaldehyde and vanillin with and without DHAA (Example 9). It is filed as cell-based. The following applies: Vanilin/Coniferylaldehyde 0/5 mM; DHAA 20 mM if combined. As to the method:
All stock solutions were stored at 5° C. In vitro bioassay: The MIC of the different treatments was determined using a micro broth dilution method. […] Control wells were prepared by adding 100 μL acetone. […] […] The plates were placed in a laminar flow chamber for 8 hours to evaporate the solvent. […] Where possible, colonies were counted to obtain more precise quantitative data.

For series [2], the system named is Salmonella enterica. Description: perlite assay, survival of Salmonella enterica: vanillin with dehydro-abietic acid (Example 1). In kind it is cell-based. As to the method: A 20 mmol solution of dehydroabietic acid in alcohol and water was also prepared.
Series [3] is described as follows: solubility in water, concluded from water extraction of heated pine shavings. It is filed as physicochemical.
Series [4] deals with Salmonella enterica. In kind it is cell-based. As to the method:
20 mmol solutions of ursolic acid, oleonic acid and betulin in alcohol were also prepared.

Series [5] deals with Salmonella enteritidis. Description: perlite bio-assay with pure DHAA and vanillin (Example 7). It is filed as cell-based. As to conditions: DHAA (10 μl of 20 mM) if +DA. As to the method:
Also, one 20 mM stock solution of DHAA was made in acetone. Bioassay test: The test was carried out using 1.5 ml Eppendorf tubes containing 10 mg of fine perlite. Ten μl of each concentration of vanillin was dispensed into four Eppendorf tubes to obtain four replicates of each concentration. Two of these received 10 μl of DHAA. The tubes were left in laminar flow chamber for 3 h to allow evaporation of the acetone. […] To keep the perlite moist during incubation, 10 μl of sterile R.O water was dispensed into each tube. As controls, two tubes received DHAA only and two tubes received R.O water only. The tubes were incubated overnight, and bacterial survival was quantified by plating the content of each tube onto nutrient agar for the bacterial count.

The next series deals with S. enteritidis. Description: inhibition zone experiment on TLC plate. In kind it is cell-based. As to conditions: FIG. 3. As to the method:
Two test solutions were prepared, i.e.: (i) vanillin in combination with DHAA, and (ii) stilbene in combination with dehydro-abietic acid (DHAA). The activity of the solutions were then tested on several different micro-organisms, as follows.
A droplet of a test solution was placed on a TLC plate. The solvent was allowed to evaporate and a suspension of test micro-organisms (Gram-positive and Gram-negative bacteria) in broth was applied evenly onto the TLC plate. The plate was incubated overnight. To visualise microbial activity, the TLC plate was sprayed with tetrazolium salt solution. Microbial activity was indicated by a red-pink colour.

Another series relates to S. cerevisiae. Description: inhibition zone experiment on TLC plate. In kind it is cell-based. As to conditions: FIG. 8, S. cerevisiae; on its own or in combination with DHAA. How it is done:
Two test solutions were prepared, i.e.: (i) vanillin in combination with DHAA, and (ii) stilbene in combination with dehydro-abietic acid (DHAA). The activity of the solutions were then tested on several different micro-organisms, as follows. A droplet of a test solution was placed on a TLC plate. The solvent was allowed to evaporate and a suspension of test micro-organisms (Gram-positive and Gram-negative bacteria) in broth was applied evenly onto the TLC plate. The plate was incubated overnight. To visualise microbial activity, the TLC plate was sprayed with tetrazolium salt solution. Microbial activity was indicated by a red-pink colour. To show the efficacy of the solutions against filamentous fungi, the inoculated TLC plates were incubated until the fungus started to sporulate. To show efficacy against yeast, after incubation, the TLC plates were pressed against a nutrient agar plate. The plate was incubated until yeast colonies were clearly visible.

In series [6] the test system is Salmonella enterica.

As to `COc1cc(/C=C/C=O)ccc1O` [Coniferyl aldehyde, coniferaldehyde], the Colony counts result with Salmonella enteritidis [1] is “TMTC”.
As for `CC(C)c1ccc2c(c1)CC[C@H]1[C@](C)(C(=O)O)CCC[C@]21C` [Dehydro-Abietic acid, dehydroabietic acid], in the series with Salmonella enterica [2] (DHAA 20 mmol alone, vanillin 0), the “Average no of cfu recovered per droplet” value is listed as more than 100 cfu. The solubility in water entry in series [3] is listed as “poorly-soluble in water”.
On to `COc1cc(C=O)ccc1O` [Vanillin, 4-hydroxy-3-methoxybenzaldehyde], for which the “Average no of cfu recovered per droplet” value is more than 100 cfu with Salmonella enterica [2] (vanillin 0.001 mmol, DHAA 20 mmol if combined); more than 100 cfu with Salmonella enterica [2] (vanillin 0.019 mmol, DHAA 20 mmol if combined); more than 100 cfu with Salmonella enterica [2] (vanillin 0.039 mmol, DHAA 20 mmol if combined); more than 100 cfu with Salmonella enterica [2] (vanillin 0.078 mmol, DHAA 20 mmol if combined); more than 100 cfu in the series with Salmonella enterica [2] (vanillin 0.156 mmol, DHAA 20 mmol if combined); more than 100 cfu with Salmonella enterica [2] (vanillin 0.313 mmol, DHAA 20 mmol if combined). Moreover, the “Average no of cfu recovered per droplet” value is recorded as more than 100 cfu with Salmonella enterica [2] (vanillin 0.625 mmol, DHAA 20 mmol if combined); more than 100 cfu with Salmonella enterica [2] (vanillin 1.25 mmol, DHAA 20 mmol if combined); more than 100 cfu in the series with Salmonella enterica [2] (vanillin 2.5 mmol, DHAA 20 mmol if combined); more than 100 cfu in the series on Salmonella enterica [2] (vanillin 5 mmol, DHAA 20 mmol if combined); more than 100 cfu in the series on Salmonella enterica [2] (vanillin 10 mmol, DHAA 20 mmol if combined); more than 100 cfu with Salmonella enterica [2] (vanillin 20 mmol, DHAA 20 mmol if combined). Also, the “inhibitory effect on Salmonella” value in the series with Salmonella enterica [2] (vanillin on its own, 20 mmol or less) is “no inhibitory effect”. Besides, the “Average no. of cfu recovered per droplet” value is given as more than 100 cfu in the series on Salmonella enterica [4] and more than 100 cfu in the series with Salmonella enterica [6] (vanillin 20 mmol, citric acid 20 mmol if combined). The Salmonella enteritidis count result in the series with Salmonella enteritidis [5] (vanillin 0.313 mM) is “TMTC”; in the series with Salmonella enteritidis [5] (vanillin 2.5 mM), “TMTC”; in the series with Salmonella enteritidis [5] (vanillin 5 mM), “TMTC”; with Salmonella enteritidis [5] (vanillin 10 mM) it was 394 CFU/tube and 500 CFU/tube. Besides, the “inhibition of S. enteritidis on TLC plate” value with S. enteritidis is “ineffective”. Also, in the series with S. cerevisiae, the “concentration of vanillin at which it is effective” value is 5 mM.
For `C=C(C)[C@@H]1CC[C@]2(CO)CC[C@]3(C)[C@H](CC[C@@H]4[C@@]5(C)CC[C@H](O)C(C)(C)[C@@H]5CC[C@]43C)[C@@H]12` [betulin], the “Average no. of cfu recovered per droplet” value in the series on Salmonella enterica [4] (triterpenoid 20 mmol alone, vanillin 0) was more than 100 cfu.
Turning to `O=C(O)CC(O)(CC(=O)O)C(=O)O` [citric acid], the “Average no. of cfu recovered per droplet” value with Salmonella enterica [6] (citric acid 20 mmol alone, vanillin 0) is reported as more than 100 cfu.
As to `CC1(C)CC[C@]2(C(=O)O)CC[C@]3(C)C(=CC[C@@H]4[C@@]5(C)CC[C@H](O)C(C)(C)[C@@H]5CC[C@]43C)[C@@H]2C1` [oleanic acid, oleanolic acid], in the series with Salmonella enterica [4], the “Average no. of cfu recovered per droplet” value is listed as more than 100 cfu.
For `C[C@H]1[C@H](C)CC[C@]2(C(=O)O)CC[C@]3(C)C(=CC[C@@H]4[C@@]5(C)CC[C@H](O)C(C)(C)[C@@H]5CC[C@]43C)[C@H]12` [ursolic acid], the “Average no. of cfu recovered per droplet” value in the series on Salmonella enterica [4] is on record as more than 100 cfu.
